# Data taken from patent publication US20090298820A1, “3-SUBSTITUTED-1H-PYRROLO[2,3-B]PYRIDINE AND 3-SUBSTITUTED-1H-PYRROLO[3,2-B]PYRIDINE COMPOUNDS, THEIR USE AS MTOR KINASE AND PI3 KINASE INHIBITORS, AND THEIR SYNTHESES” (Wyeth, priority 2008, published 2009).
# Experiments:
# Format in all cases: biochemical
# PI3Kγ = PI3Kγ (Homo sapiens, UniProt P48736); assay: PI3K-gamma fluorescence polarization assay; details: read-out: PI3Kγ Median IC50
# mTOR = mTOR (Homo sapiens, UniProt P42345); assay: mTOR enzyme assay (DELFIA format, His6-S6K substrate); details: read-out: mTOR Kinase Median IC50
# PI3Kα = PI3Kα (Homo sapiens, UniProt P42336); assay: PI3K-alpha fluorescence polarization assay; details: read-out: PI3Kα Median IC50
# Chain of PI3Kα (P42336 whole entry, species assumed): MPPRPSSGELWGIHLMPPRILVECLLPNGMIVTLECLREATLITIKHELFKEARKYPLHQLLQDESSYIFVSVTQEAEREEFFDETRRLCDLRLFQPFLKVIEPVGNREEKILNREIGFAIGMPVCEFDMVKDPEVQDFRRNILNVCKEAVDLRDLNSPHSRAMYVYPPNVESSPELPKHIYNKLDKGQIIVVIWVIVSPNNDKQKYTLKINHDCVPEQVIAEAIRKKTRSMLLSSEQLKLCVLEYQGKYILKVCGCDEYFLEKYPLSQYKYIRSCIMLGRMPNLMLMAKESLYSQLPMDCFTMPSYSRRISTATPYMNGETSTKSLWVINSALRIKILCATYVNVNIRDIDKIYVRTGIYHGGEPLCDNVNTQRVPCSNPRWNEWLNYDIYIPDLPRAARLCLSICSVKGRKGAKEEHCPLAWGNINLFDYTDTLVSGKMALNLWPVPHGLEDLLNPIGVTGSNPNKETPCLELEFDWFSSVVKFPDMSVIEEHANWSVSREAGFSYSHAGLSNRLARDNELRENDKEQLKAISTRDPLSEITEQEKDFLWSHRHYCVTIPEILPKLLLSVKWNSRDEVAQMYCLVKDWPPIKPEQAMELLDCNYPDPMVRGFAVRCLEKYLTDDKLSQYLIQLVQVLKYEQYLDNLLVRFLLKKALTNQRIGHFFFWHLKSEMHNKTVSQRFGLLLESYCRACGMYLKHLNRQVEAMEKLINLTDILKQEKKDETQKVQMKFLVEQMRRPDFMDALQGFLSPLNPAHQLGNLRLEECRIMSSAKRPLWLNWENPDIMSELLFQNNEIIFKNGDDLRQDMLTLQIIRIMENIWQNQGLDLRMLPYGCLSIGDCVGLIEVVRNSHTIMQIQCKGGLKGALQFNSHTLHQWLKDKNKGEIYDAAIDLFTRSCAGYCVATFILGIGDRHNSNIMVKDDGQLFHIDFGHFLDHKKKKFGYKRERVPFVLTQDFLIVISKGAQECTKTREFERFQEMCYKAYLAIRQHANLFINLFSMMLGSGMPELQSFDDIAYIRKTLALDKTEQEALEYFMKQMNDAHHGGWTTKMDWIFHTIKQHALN
# Chain of PI3Kα (P27986 whole entry partner, species assumed): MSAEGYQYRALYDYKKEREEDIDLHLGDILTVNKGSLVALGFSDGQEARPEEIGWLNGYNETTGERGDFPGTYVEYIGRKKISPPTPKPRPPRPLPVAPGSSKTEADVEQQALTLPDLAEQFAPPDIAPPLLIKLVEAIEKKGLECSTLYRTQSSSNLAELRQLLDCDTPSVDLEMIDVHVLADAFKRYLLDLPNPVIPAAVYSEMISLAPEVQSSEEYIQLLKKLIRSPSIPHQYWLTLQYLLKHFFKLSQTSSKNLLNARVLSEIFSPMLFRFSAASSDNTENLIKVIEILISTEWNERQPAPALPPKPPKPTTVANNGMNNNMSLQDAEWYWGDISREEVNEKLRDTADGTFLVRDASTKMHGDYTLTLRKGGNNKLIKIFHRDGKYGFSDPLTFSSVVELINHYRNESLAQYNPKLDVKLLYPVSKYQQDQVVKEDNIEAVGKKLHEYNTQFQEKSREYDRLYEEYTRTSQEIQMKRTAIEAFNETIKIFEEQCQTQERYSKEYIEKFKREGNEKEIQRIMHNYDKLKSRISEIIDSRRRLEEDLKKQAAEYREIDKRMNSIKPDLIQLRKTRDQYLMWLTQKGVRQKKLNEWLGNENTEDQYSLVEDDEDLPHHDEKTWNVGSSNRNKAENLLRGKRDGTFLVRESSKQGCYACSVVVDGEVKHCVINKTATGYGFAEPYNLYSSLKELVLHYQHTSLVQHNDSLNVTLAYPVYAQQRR
# Chain of PI3Kγ (P48736 whole entry, species assumed): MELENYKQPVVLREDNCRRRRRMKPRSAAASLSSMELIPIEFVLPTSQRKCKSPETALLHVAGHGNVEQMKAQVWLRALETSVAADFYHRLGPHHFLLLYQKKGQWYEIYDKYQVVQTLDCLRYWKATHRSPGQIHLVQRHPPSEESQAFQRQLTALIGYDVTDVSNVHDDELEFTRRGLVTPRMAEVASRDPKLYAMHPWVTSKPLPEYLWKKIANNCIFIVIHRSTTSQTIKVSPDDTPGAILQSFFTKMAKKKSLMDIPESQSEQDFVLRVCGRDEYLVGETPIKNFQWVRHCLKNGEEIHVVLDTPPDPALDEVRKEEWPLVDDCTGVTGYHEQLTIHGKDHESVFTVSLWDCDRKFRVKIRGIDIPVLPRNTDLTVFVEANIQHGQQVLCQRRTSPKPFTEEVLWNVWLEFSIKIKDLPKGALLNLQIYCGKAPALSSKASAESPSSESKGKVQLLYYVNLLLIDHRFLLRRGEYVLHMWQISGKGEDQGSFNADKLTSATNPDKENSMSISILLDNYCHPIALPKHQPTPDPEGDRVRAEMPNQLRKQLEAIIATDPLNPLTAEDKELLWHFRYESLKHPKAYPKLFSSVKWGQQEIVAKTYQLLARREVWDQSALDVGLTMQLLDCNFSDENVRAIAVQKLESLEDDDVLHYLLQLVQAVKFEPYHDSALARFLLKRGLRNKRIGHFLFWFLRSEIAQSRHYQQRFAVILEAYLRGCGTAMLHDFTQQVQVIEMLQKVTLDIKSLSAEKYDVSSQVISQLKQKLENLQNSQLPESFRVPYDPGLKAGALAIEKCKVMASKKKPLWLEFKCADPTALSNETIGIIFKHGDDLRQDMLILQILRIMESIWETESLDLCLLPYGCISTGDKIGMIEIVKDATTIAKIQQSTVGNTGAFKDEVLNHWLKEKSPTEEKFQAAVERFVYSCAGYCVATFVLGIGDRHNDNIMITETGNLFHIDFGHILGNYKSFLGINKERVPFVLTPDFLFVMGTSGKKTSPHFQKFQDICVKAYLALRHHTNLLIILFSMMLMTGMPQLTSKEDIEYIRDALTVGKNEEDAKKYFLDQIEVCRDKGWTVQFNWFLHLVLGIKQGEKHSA
SMILES,IC50 (PI3Kγ),IC50 (mTOR),IC50 (PI3Kα)
"CCn1cc(/C=C2\Oc3cccc(O)c3C2=O)c2c(-c3ccc(C(=O)N4CCN(CCO)CC4)cc3)ccnc21 [Compound 186, (2Z)-2-{[1-ethyl-4-(4-{[4-(2-hydroxyethyl)piperazin-1-yl]carbonyl}phenyl)-1H-pyrrolo[2,3-b]pyridin-3-yl]methylidene}-4-hydroxy-1-benzofuran-3(2H)-one]",550 nM,4.6 nM,445 nM
"Cn1cc(C=C2Oc3ccc(NC(=O)Nc4cccnc4)cc3C2=O)c2c(N3CCC(C(=O)NCC(N)=O)CC3)ccnc21 [Compound 202, N-(2-amino-2-oxoethyl)-1-[1-methyl-3-({3-oxo-5-[(pyridin-3-ylcarbamoyl)amino]-1-benzofuran-2(3H)-ylidene}methyl)-1H-pyrrolo[2,3-b]pyridin-4-yl]piperidine-4-carboxamide]",> 10000 nM,4 nM,5900 nM
"Cn1cc(C=C2Oc3ccc(NC(=O)Nc4cccnc4)cc3C2=O)c2c(N3CCC(C(=O)N[C@@H]4CCNC4)CC3)ccnc21 [Compound 207, 1-[1-methyl-3-({3-oxo-5-[(pyridin-3-ylcarbamoyl)amino]-1-benzofuran-2(3H)-ylidene}methyl)-1H-pyrrolo[2,3-b]pyridin-4-yl]-N-[(3R)-pyrrolidin-3-yl]piperidine-4-carboxamide]",4290 nM,16 nM,≥ 10000 nM
"CN(C(=O)C1CCN(c2ccnc3c2c(C=C2Oc4ccc(NC(=O)Nc5cccnc5)cc4C2=O)cn3C)CC1)[C@@H]1CCNC1 [Compound 206, N-methyl-1-[1-methyl-3-({3-oxo-5-[(pyridin-3-ylcarbamoyl)amino]-1-benzofuran-2(3H)-ylidene}methyl)-1H-pyrrolo[2,3-b]pyridin-4-yl]-N-[(3R)-pyrrolidin-3-yl]piperidine-4-carboxamide]",> 10000 nM,47 nM,> 10000 nM
"CCN(CC)C(=O)C1CCN(c2ccnc3c2c(/C=C2\Oc4ccc(NC(=O)Nc5cccnc5)cc4C2=O)cn3C)CC1 [Compound 244, N,N-diethyl-1-{1-methyl-3-[(Z)-{3-oxo-5-[(pyridin-3-ylcarbamoyl)amino]-1-benzofuran-2(3H)-ylidene}methyl]-1H-pyrrolo[2,3-b]pyridin-4-yl}piperidine-4-carboxamide]",3380 nM,115 nM,308 nM
"Cn1cc(/C=C2\Oc3cccc(O)c3C2=O)c2c(-c3cccc(C(=O)Nc4ccc(F)cc4)c3)ccnc21 [Compound 96, N-(4-fluorophenyl)-3-{3-[(Z)-(4-hydroxy-3-oxo-1-benzofuran-2(3H)-ylidene)methyl]-1-methyl-1H-pyrrolo[2,3-b]pyridin-4-yl}benzamide]",2700 nM,13 nM,301 nM
"COc1ccc2c(n1)c(C=C1Oc3cc(O)cc(O)c3C1=O)cn2C [Compound 3, 4,6-dihydroxy-2-[(5-methoxy-1-methyl-1H-pyrrolo[3,2-b]pyridin-3-yl)methylene]-1-benzofuran-3(2H)-one]",> 10000 nM,685 nM,506 nM
"CNC(=O)Nc1ccc2c(c1)C(=O)/C(=C/c1cn(C)c3nccc(-c4ccc(C(=O)N5CCOCC5)cc4)c13)O2 [Compound 179, 1-methyl-3-[(2Z)-2-({1-methyl-4-[4-(morpholin-4-ylcarbonyl)phenyl]-1H-pyrrolo[2,3-b]pyridin-3-yl}methylidene)-3-oxo-2,3-dihydro-1-benzofuran-5-yl]urea]",578 nM,15 nM,249 nM
"CC(C)NC(=O)Nc1ccc2c(c1)C(=O)/C(=C/c1cn(C)c3nccc(N4CC5CCC(C4)O5)c13)O2 [Compound 235, 1-(1-methylethyl)-3-[(2Z)-2-{[1-methyl-4-(8-oxa-3-azabicyclo[3.2.1]oct-3-yl)-1H-pyrrolo[2,3-b]pyridin-3-yl]methylidene}-3-oxo-2,3-dihydro-1-benzofuran-5-yl]urea]",2560 nM,72 nM,845 nM
"CN1CCN(c2ccc(NC(=O)Nc3ccc4c(c3)C(=O)/C(=C/c3cn(C)c5nccc(N6CCC(C(=O)N(C)C)CC6)c35)O4)cc2)CC1 [Compound 218, N,N-dimethyl-1-(1-methyl-3-{(Z)-[5-({[4-(4-methylpiperazin-1-yl)phenyl]carbamoyl}amino)-3-oxo-1-benzofuran-2(3H)-ylidene]methyl}-1H-pyrrolo[2,3-b]pyridin-4-yl)piperidine-4-carboxamide]",> 10000 nM,445 nM,994 nM
"CN1CCN(c2ccnc3c2c(/C=C2\Oc4ccc(NC(=O)Nc5cccnc5)cc4C2=O)cn3C)CC1 [Compound 184, 1-[(2Z)-2-{[1-methyl-4-(4-methylpiperazin-1-yl)-1H-pyrrolo[2,3-b]pyridin-3-yl]methylidene}-3-oxo-2,3-dihydro-1-benzofuran-5-yl]-3-pyridin-3-ylurea]",484 nM,83 nM,632 nM
"Cn1cc(/C=C2\Oc3cccc(O)c3C2=O)c2c(-c3ccc(C(=O)Nc4ccc(F)cc4)cc3)ccnc21 [Compound 83, N-(4-fluorophenyl)-4-{3-[(Z)-(4-hydroxy-3-oxo-1-benzofuran-2(3H)-ylidene)methyl]-1-methyl-1H-pyrrolo[2,3-b]pyridin-4-yl}benzamide]",951 nM,9.5 nM,124 nM
"Cc1cnccc1CN(C)C(=O)C1CCN(c2ccnc3c2c(/C=C2\Oc4ccc(NC(=O)Nc5cccnc5)cc4C2=O)cn3C)CC1 [Compound 222, N-methyl-1-{1-methyl-3-[(Z)-{3-oxo-5-[(pyridin-3-ylcarbamoyl)amino]-1-benzofuran-2(3H)-ylidene}methyl]-1H-pyrrolo[2,3-b]pyridin-4-yl}-N-[(3-methylpyridin-4-yl)methyl]piperidine-4-carboxamide]",2540 nM,34 nM,2830 nM
"CN(C)C(=O)C1CCN(c2ccnc3c2c(/C=C2\Oc4ccc(NC(=O)Nc5ccc(N6CCOCC6)cc5)cc4C2=O)cn3C)CC1 [Compound 268, N,N-dimethyl-1-(1-methyl-3-{(Z)-[5-{[(4-morpholin-4-ylphenyl)carbamoyl]amino}-3-oxo-1-benzofuran-2(3H)-ylidene]methyl}-1H-pyrrolo[2,3-b]pyridin-4-yl)piperidine-4-carboxamide]",6090 nM,215 nM,2590 nM
"COc1ccc2c(n1)c(C=C1Oc3cccc(O)c3C1=O)cn2C [Compound 5, 4-hydroxy-2-[(5-methoxy-1-methyl-1H-pyrrolo[3,2-b]pyridin-3-yl)methylene]-1-benzofuran-3(2H)-one]",> 10000 nM,> 20000 nM,3930 nM

# Stronger by IC50 (PI3Kγ), values ahead:
IC50 (PI3Kγ),IC50 (mTOR),IC50 (PI3Kα),SMILES
36 nM,0.3 nM,7 nM,"Cn1cc(/C=C2\Oc3cc(O)cc(O)c3C2=O)c2c(-c3ccc(NS(C)(=O)=O)cc3)ccnc21 [Compound 36, N-(4-{3-[(Z)-(4,6-dihydroxy-3-oxo-1-benzofuran-2(3H)-ylidene)methyl]-1-methyl-1H-pyrrolo[2,3-b]pyridin-4-yl}phenyl)methanesulfonamide]"
38 nM,0.2 nM,6 nM,"Cn1cc(/C=C2\Oc3cc(O)cc(O)c3C2=O)c2c(-c3ccc(C(N)=O)cc3)ccnc21 [Compound 34, 4-{3-[(Z)-(4,6-dihydroxy-3-oxo-1-benzofuran-2(3H)-ylidene)methyl]-1-methyl-1H-pyrrolo[2,3-b]pyridin-4-yl}benzamide]"
242 nM,115 nM,271 nM,"Cn1cc(/C=C2\Oc3cccc(O)c3C2=O)c2c(-c3ccc(N4CCCCC4)nc3)ccnc21 [Compound 70, (2Z)-4-hydroxy-2-{[1-methyl-4-(6-piperidin-1-ylpyridin-3-yl)-1H-pyrrolo[2,3-b]pyridin-3-yl]methylene}-1-benzofuran-3(2H)-one]"
26 nM,0.6 nM,20 nM,"COC1CCN(C(=O)c2ccc(-c3ccnc4c3c(/C=C3\Oc5cccc(O)c5C3=O)cn4C)cc2)C1 (stereo not drawn) [Compound 249, (2Z)-4-hydroxy-2-[(4-{4-[(3-methoxypyrrolidin-1-yl)carbonyl]phenyl}-1-methyl-1H-pyrrolo[2,3-b]pyridin-3-yl)methylene]-1-benzofuran-3(2H)-one]"
83 nM,0.2 nM,25 nM,"Cn1cc(/C=C2\Oc3cc(O)cc(O)c3C2=O)c2c(-c3ccc(N4CCOCC4)cc3)ccnc21 [Compound 49, (2Z)-4,6-dihydroxy-2-{[1-methyl-4-(4-morpholin-4-ylphenyl)-1H-pyrrolo[2,3-b]pyridin-3-yl]methylene}-1-benzofuran-3(2H)-one]"
100 nM,0.2 nM,11 nM,"Cn1cc(/C=C2\Oc3cc(O)cc(O)c3C2=O)c2c(-c3ccc(F)c(C(=O)Nc4ccccc4)c3)ccnc21 [Compound 98, 5-{3-[(Z)-(4,6-dihydroxy-3-oxo-1-benzofuran-2(3H)-ylidene)methyl]-1-methyl-1H-pyrrolo[2,3-b]pyridin-4-yl}-2-fluoro-N-phenylbenzamide]"
152 nM,0.9 nM,73 nM,"COCCN(C)C(=O)c1ccc(-c2ccnc3c2c(/C=C2\Oc4cccc(O)c4C2=O)cn3C)cc1 [Compound 175, 4-{3-[(Z)-(4-hydroxy-3-oxo-1-benzofuran-2(3H)-ylidene)methyl]-1-methyl-1H-pyrrolo[2,3-b]pyridin-4-yl}-N-(2-methoxyethyl)-N-methylbenzamide]"
270 nM,2.8 nM,167 nM,"Cn1cc(/C=C2\Oc3cc(O)cc(O)c3C2=O)c2c(-c3ccccc3Cl)ccnc21 [Compound 12, (2Z)-2-{[4-(2-chlorophenyl)-1-methyl-1H-pyrrolo[2,3-b]pyridin-3-yl]methylene}-4,6-dihydroxy-1-benzofuran-3(2H)-one]"
66 nM,3.6 nM,161 nM,"Cn1cc(/C=C2\Oc3cc(O)cc(O)c3C2=O)c2c(-c3ccc(Oc4ccccc4)cc3)ccnc21 [Compound 87, (2Z)-4,6-dihydroxy-2-{[1-methyl-4-(4-phenoxyphenyl)-1H-pyrrolo[2,3-b]pyridin-3-yl]methylene}-1-benzofuran-3(2H)-one]"
